Data: patent US10905679B2, “TRPM8 receptor agonist compounds and uses thereof” (UNIVERSIDAD MIGUEL HERNANDEZ DE ELCHE, priority 2016, dated 2021)

Columns and labels:
TRPM8 = biological target: T1, TRPM8 (Homo sapiens, UniProt Q7Z2W7); experiment: Ca2+ fluorimetry assay in CHO cell line stably expressing TRPM8; assay type: cell-based; details: CHO cells stably expressing TRPM8; for activation at 10 µM: Fluo-4NW fluorescence; for EC50: concentrations 0.1, 1, 10 and 100 μM, sigmoid fit
T1 construct: expressed in transfected cells
Procedure: The cells were cultured in monolayer in EMEM medium (Earle's minimum essential medium with Earle's salts, Invitrogen) supplemented with 10% foetal bovine serum (FBS), 2 mM L-glutamine, 1% penicillin-streptomycin solution and […] of the Geneticin antibiotic (Sigma) and kept at 37° C. in a humidified atmosphere with 5% of CO2. Ca^2+ fluorimetry assays were carried out in order to determine the efficacy of the compounds on the TRPM8 channels. The cells were seeded in 96-well plates with a density of 25,000 cells per well. Three days after seeding, the medium was removed and 100 μl of the Fluo-4NW fluorescent probe from Invitrogen was added with a concentration of 5 μM in the presence of 0.02% pluronic acid; after 60 minutes of incubation at 37° C. in a humidified atmosphere with 5% of CO2, the fluorescence was measured in a microplate reader (POLARstar Omega) with a configuration of 485 nm for the excitation and 520 nm for the emission, during 20 cycles. […] In the wells that were used as negative controls, 1 μl of AMTB [N-(3-aminopropyl)-2-[(3-methylphenyl)methoxy]-N-(2-thienylmethyl)benzamide] was added to obtain a final concentration of 10 μM, to block the TRPM8 channels.
The amplitudes of the Ca^2+ increases, caused by the stimulation of the cells with the compounds, were measured by subtracting the basal fluorescence signal (mean intensity obtained before adding the compound) from the fluorescence peak obtained after applying the compounds. The obtained results were adjusted to a sigmoid function using the software suite of the GraphPad Prism computer program.

guinea pig = experiment: In vivo tear secretion measured using phenol red threads after ocular instillation; details: instilled ocularly at 200 μM, phenol red thread 30 seconds
Source text: The in vivo activity of the selected TRPM8 activating compounds (TZM-7) has been assessed in an animal model following the protocol described in Acosta M C et al., Invest Ophthalmol Vis Sci 2014 (Corneal sensory nerve activity in an experimental model of UV keratitis. Acosta M et al., Invest Ophthalmol Vis Sci May 1; 55(6):3403-12). […] Tear secretion can be measured using phenol red threads (Zone-Quick, Menicon, Nagoya, Japan) that are applied to the nasal edge of the lower eyelid for 30 seconds (after that time, the distance of the red-dyed thread is measured in mm).

T1 sequence (Q7Z2W7 whole entry): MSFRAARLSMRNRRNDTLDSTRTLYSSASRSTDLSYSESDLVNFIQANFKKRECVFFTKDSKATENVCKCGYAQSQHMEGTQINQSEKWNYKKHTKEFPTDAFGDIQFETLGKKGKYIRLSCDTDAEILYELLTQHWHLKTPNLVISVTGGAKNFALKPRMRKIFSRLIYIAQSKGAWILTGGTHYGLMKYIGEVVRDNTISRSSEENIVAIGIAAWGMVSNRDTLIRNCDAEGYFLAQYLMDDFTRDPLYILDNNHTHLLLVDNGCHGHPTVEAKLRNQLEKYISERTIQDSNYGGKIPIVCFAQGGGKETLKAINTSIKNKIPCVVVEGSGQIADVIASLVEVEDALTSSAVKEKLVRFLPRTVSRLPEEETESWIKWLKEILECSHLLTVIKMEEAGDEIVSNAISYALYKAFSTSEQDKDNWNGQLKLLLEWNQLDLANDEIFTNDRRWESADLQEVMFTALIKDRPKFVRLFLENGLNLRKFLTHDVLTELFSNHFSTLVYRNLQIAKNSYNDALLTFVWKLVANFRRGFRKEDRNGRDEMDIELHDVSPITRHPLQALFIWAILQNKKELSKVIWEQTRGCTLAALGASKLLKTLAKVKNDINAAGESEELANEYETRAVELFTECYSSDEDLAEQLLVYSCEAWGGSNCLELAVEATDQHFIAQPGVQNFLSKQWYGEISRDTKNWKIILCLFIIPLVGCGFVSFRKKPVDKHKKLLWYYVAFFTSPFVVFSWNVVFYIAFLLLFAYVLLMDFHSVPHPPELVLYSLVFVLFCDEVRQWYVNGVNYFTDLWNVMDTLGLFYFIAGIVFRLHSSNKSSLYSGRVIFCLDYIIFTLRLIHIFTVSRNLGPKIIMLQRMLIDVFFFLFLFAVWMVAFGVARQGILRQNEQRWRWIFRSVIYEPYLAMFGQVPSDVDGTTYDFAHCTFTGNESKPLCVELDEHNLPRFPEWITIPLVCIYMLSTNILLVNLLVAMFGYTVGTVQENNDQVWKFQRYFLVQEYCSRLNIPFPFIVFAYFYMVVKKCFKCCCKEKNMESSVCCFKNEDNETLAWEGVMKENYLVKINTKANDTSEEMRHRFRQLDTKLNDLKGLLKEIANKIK

Row | SMILES | activation at 10 µM (TRPM8) | tear secretion (guinea pig) | EC50 (TRPM8)
1 | CC1CC[C@@H](C(C)C)[C@H](n2cc(CCCCCCCCC(=O)O)nn2)C1 (stereo in doubt) [TZM-21, 9-(1-((1R,2S,5S)-2-isopropyl-5-methylcyclohexyl)-1H-1,2,3-triazole-4-yl)-nonanoic acid] | 54 ± 14.4% |  | 
2 | CC1CC[C@@H](C(C)C)[C@H](n2cc(CCCCC#N)nn2)C1 (stereo in doubt) [TZM-22, 5-(1-((1R,2S,5S)-2-isopropyl-5-methylcyclohexyl)-1H-1,2,3-triazole-4-yl)pentanenitrile] | 57.3 ± 15.2% |  | 
3 | CC1CCC(C(C)C)C(O)C1 (stereo not shown) [Menthol, reference compound] | 101 ± 1.66% | produces an increase in tear secretion | 
4 | CC(C)[C@@H]1CC[C@@H](C)C[C@H]1n1cc(CO)nn1 [TZM-1] | 45.5 ± 11.2% |  | 
5 | CC(C)[C@@H]1CC[C@@H](C)C[C@H]1n1cc(-c2ccc(Oc3ccccc3)cc2)nn1 [TZM-2, 1-((1R,2S,5R)-2-isopropyl-5-methylcyclohexyl)-4-(4-phenoxyphenyl)-1H-1,2,3-triazole] | 55.6 ± 26.2% |  | 
6 | CC(C)[C@@H]1CC[C@@H](C)C[C@H]1n1cc(-c2ccccc2)nn1 [TZM-3, 1-((1R,2S,5R)-2-isopropyl-5-methylcyclohexyl)-4-phenyl-1H-1,2,3-triazole] | 51.6 ± 14% |  | 
7 | COc1ccc(-c2cn([C@@H]3C[C@H](C)CC[C@H]3C(C)C)nn2)cc1 [TZM-4, 1-((1R,2S,5R)-2-isopropyl-5-methylcyclohexyl)-4-(4-methoxyphenyl)-1H-1,2,3-triazole] | 85.1 ± 33% |  | 3.47 ± 1.34 µM
8 | CC(C)[C@@H]1CC[C@@H](C)C[C@H]1n1cc(-c2ccc(-c3ccccc3)cc2)nn1 [TZM-5, 4-([1,1′-biphenyl]-4-yl)-1-((1R,2S,5R)-2-isopropyl-5-methylcyclohexyl)-1H-1,2,3-triazole] | 50.1 ± 8.25% |  | 
9 | CC(C)[C@@H]1CC[C@@H](C)C[C@H]1n1cc(C2(O)CCCCC2)nn1 [TZM-6, 1-(1-((1R,2S,5R)-2-isopropyl-5-methylcyclohexyl)-1H-1,2,3-triazole-4-yl)cyclohexan-1-ol] | 45.1 ± 16.9% |  | 
10 | CC(C)[C@@H]1CC[C@@H](C)C[C@H]1n1cc(-c2cccc3ccccc23)nn1 [TZM-8, 1-((1R,2S,5R)-2-isopropyl-5-methylcyclohexyl)-4-(naphthalene-1-yl)-1H-1,2,3-triazole] | 56.5 ± 29.7% |  | 
11 | CC(C)[C@@H]1CC[C@@H](C)C[C@H]1n1cc(-c2ccccn2)nn1 [TZM-9, 2-(1-((1R,2S,5R)-2-isopropyl-5-methylcyclohexyl)-1H-1,2,3-triazole-4-yl)pyridine] | 59.1 ± 30.4% |  | 6.23 ± 3.18 µM
12 | CC(C)[C@@H]1CC[C@@H](C)C[C@H]1n1cc(CCc2ccccc2)nn1 [TZM-10, 1-((1R,2S,5R)-2-isopropyl-5-methylcyclohexyl)-4-phenethyl-1H-1,2,3-triazole] | 45 ± 23.4% |  | 3.84 ± 2.36 µM
13 | COc1ccc(C(=O)c2cn([C@@H]3C[C@H](C)CC[C@H]3C(C)C)nn2)cc1OC [TZM-11, (3,4-dimethoxyphenyl) (1-((1R,2S,5R)-2-isopropyl-5-methylcyclohexyl)-1H-1,2,3-triazole-4-yl)methanone] | 53.5 ± 13.4% |  | 9.84 ± 3.29 µM
14 | CC(C)[C@@H]1CC[C@@H](C)C[C@H]1n1cc(C(=O)c2cccc(F)c2)nn1 [TZM-12, (3-fluorophenyl) (1-((1R,2S,5R)-2-isopropyl-5-methylcyclohexyl)-1H-1,2,3-triazole-4-yl)methanone] | 57.9 ± 8.57% |  | 
15 | CC(C)[C@@H]1CC[C@@H](C)C[C@H]1n1cc(C(=O)c2ccc(Oc3ccccc3)cc2)nn1 [TZM-13, (1-((1R,2S,5R)-2-isopropyl-5-methylcyclohexyl)-1H-1,2,3-triazole-4-yl) (4-phenoxyphenyl)methanone] | 46.5 ± 6.57% |  | 
16 | COc1ccc(C(=O)c2cn([C@@H]3C[C@H](C)CC[C@H]3C(C)C)nn2)c(OC)c1 [TZM-14, (2,4-dimethoxyphenyl) (1-((1R,2S,5R)-2-isopropyl-5-methylcyclohexyl)-1H-1,2,3-triazole-4-yl)methanone] | 43.8 ± 4.22% |  | 
17 | COc1ccccc1C(=O)c1cn([C@@H]2C[C@H](C)CC[C@H]2C(C)C)nn1 [TZM-15, (1-((1R,2S,5R)-2-isopropyl-5-methylcyclohexyl)-1H-1,2,3-triazole-4-yl) (2-methoxyphenyl)methanone] | 50.5 ± 4.83% |  | 
18 | COc1cc(OC)cc(C(=O)c2cn([C@@H]3C[C@H](C)CC[C@H]3C(C)C)nn2)c1 [TZM-16, (3,5-dimethoxyphenyl) (1-((1R,2S,5R)-2-isopropyl-5-methylcyclohexyl)-1H-1,2,3-triazole-4-yl)methanone] | 44.5 ± 5.59% |  | 
19 | CC(C)[C@@H]1CC[C@@H](C)C[C@H]1n1cc(C(=O)c2ccc(-c3ccccc3)cc2)nn1 [TZM-17, [1,1′-biphenyl]-4-yl(1-((1R,2S,5R)-2-isopropyl-5-methylcyclohexyl)-1H-1,2,3-triazole-4-yl)methanone] | 42 ± 4.53% |  | 
20 | COc1ccc(C(=O)c2cn([C@@H]3C[C@H](C)CC[C@H]3C(C)C)nn2)cc1 [TZM-18, (1-((1R,2S,5R)-2-isopropyl-5-methylcyclohexyl)-1H-1,2,3-triazole-4-yl) (4-methoxyphenyl)methanone] | 44.6 ± 5.62% |  | 
21 | COc1cccc(C(=O)c2cn([C@@H]3C[C@H](C)CC[C@H]3C(C)C)nn2)c1 [TZM-19, (1-((1R,2S,5R)-2-isopropyl-5-methylcyclohexyl)-1H-1,2,3-triazole-4-yl) (3-methoxyphenyl)methanone] | 40.8 ± 9.01% |  | 
22 | CC(C)[C@@H]1CC[C@@H](C)C[C@H]1n1cc(C(=O)c2ccc(Cl)cc2)nn1 [TZM-20, (4-chlorophenyl) (1-((1R,2S,5R)-2-isopropyl-5-methylcyclohexyl)-1H-1,2,3-triazole-4-yl)methanone] | 66.9 ± 17.5% |  | 
23 | CC(C)[C@@H]1CC[C@@H](C)C[C@H]1n1cc(-c2cccc(O)c2)nn1 [TZM-23, 3-[1-((1R,2S,5R)-2-isopropyl-5-methylcyclohexyl)-1H-1,2,3-triazole-4-yl]phenol] | 51.2 ± 16.1% |  | 
24 | COc1cccc(-c2cn([C@@H]3C[C@H](C)CC[C@H]3C(C)C)nn2)c1 [TZM-24, 1-((1R,2S,5R)-2-isopropyl-5-methylcyclohexyl)-4-(3-methoxyphenyl)-1H-1,2,3-triazole] | 37.8 ± 5.49% |  | 
25 | COCc1cn([C@@H]2C[C@H](C)CC[C@H]2C(C)C)nn1 [TZM-25, 1-((1R,2S,5R)-2-isopropyl-5-methylcyclohexyl)-4-(methoxymethyl)-1H-1,2,3-triazole] | 45.1 ± 18.6% |  | 
26 | COc1ccc(C(O)c2cn([C@@H]3C[C@H](C)CC[C@H]3C(C)C)nn2)cc1OC (stereo partly drawn) [TZM-26, (3,4-dimethoxyphenyl) (1-((1R,2S,5R)-2-isopropyl-5-methylcyclohexyl)-1H-1,2,3-triazole-4-yl)methanol] | 50.9 ± 17.2% |  | 
